Results as given in patent US20080206311A1, “Sucrase Activity Inhibitor, Glucoamylase Activity Inhibitor and Food and Feed Containing the Same” (MITSUI SUGAR CO., LTD., priority 2005, published 2008).

Experiments:
[1] = tested on: small-intestinal enzyme liquid; test: Decomposition of a saccharide alone (control solution) by small-intestinal enzyme liquid; format: biochemical, rat; details: 5% saccharide alone; for Liberated galactose concentration: Test Example 3
Procedure: (§1) Palatinose (trade name: Palatinose IC, ex Shin Mitsui Sugar Co., Ltd.) (test sample) was used as a sample for investigating each enzyme activity inhibitory effect. Maltose and sucrose were used as substrates for maltase and sucrose, respectively. The test sample and the substrates were dissolved in 0.1 M phosphate buffer (pH 6.8) at the concentration shown in Table 1 below to prepare test solutions (Solutions 4 and 5). Also, the test sample or the substrates were dissolved in 0.1 M phosphate buffer (pH 6.8), respectively to at the concentration shown in Table 1 below to prepare control solutions (Solution 1 for the test sample and Solutions 2 and 3 for the substrates).
(§2) Two grams of rat small-intestinal acetone powder (ex Sigma Corporation) were dissolved in 20 ml of 0.1 M phosphate buffer (pH 6.8), left standing one day at 5° C., and subsequently subjected to centrifugal separation (8000 rpm×15 min.). The supernatant was filtered through a 0.8 μm membrane filter to obtain a small-intestinal enzyme liquid. This liquid contained a mixture of enzymes present in small intestine, such as sucrose, glucoamylase, maltase, and isomaltase.
(§3) Each 0.25 ml of the small-intestinal enzyme liquid was added to each 5 ml of Solutions 1 through 5 and placed in a water bath at 37° C. to allow them to react for 60 min. while shaken at 60 strokes/min. After the reaction, they were heated in a boiling water bath for 3 min. for inactivation of the enzymes.
(§4) The glucose concentration in each solution after the reaction was measured using the F-kit Glucose (ex Roche). A liberated glucose concentration (g/l) was calculated by subtracting the blank value (0.1 M phosphate buffer alone) and the concentration of glucose originally contained in the test sample from each glucose concentration measured.
The fructose concentration was measured using the F-kit Fructose (ex Roche). The liberated fructose concentration, g/l, was obtained by subtracting the blank value (0.1 M phosphate buffer alone) from the resultant fructose concentration.
(§5) The procedures in Example 1 were repeated with the exception that palatinit, palatinose or isomaltose was used as a test sample and lactose was used as a substrate. The test samples and the substrate were dissolved in 0.1 M phosphate buffer (pH 6.8) to attain the concentration shown in Table 5 to thereby prepare three test solutions. Besides, each of the test samples or the substrate was dissolved in 0.1 M phosphate buffer (pH 6.8) to attain the concentration shown in Table 5 to thereby prepare control solutions. Each 5 ml of the aforementioned test solutions and the control solutions was subjected to the enzymatic reaction according to the same procedures as in Example 1. The glucose concentration, the fructose concentration and the galactose concentration were measured. The galactose concentration was measured using F-kit Galactose (ex Roche). The liberated galactose concentration, g/l, was calculated by subtracting the blank value (0.1 M phosphate buffer alone) from the measured galactose concentration.

sucrase = target: T1, sucrase (Rattus norvegicus, UniProt P23739); test: Sucrase activity inhibition with rat small-intestinal enzyme liquid, substrate sucrose; format: biochemical
T1 construct: This liquid contained a mixture of enzymes present in small intestine, such as sucrose, glucoamylase, maltase, and isomaltase; tissue Sigma Corporation; host or cells: rat small intestine (acetone powder), buffer extract, unpurified
Procedure: as §1, §2, §3, §4
(§6) Next, each of the liberated glucose concentration was input in the following equation to obtain decomposition inhibition ratio for maltase and sucrose. In the present tests, the substrates and the inhibitors were decomposed by enzymes present in the small-intestinal enzyme liquid. However, the enzymes decomposing the substrates are different from the enzymes decomposing the inhibitors. The decomposition inhibition ratio was determined as a measure for the inhibitory effect. When the inhibitor was added, the glucose concentration was lower than that seen when the substrate alone was reacted. A higher decomposition inhibition ratio means a stronger inhibitory effect.
(§7) Decomposition inhibition ratio,%={(A+B)−(AB)}+(A+B)×100 [Equation 1]
(§8) wherein (A+B) indicates a sum of a liberated glucose concentration in the control solution containing the test sample alone after the reaction (A) and a liberated glucose concentration in the control solution containing the substrate alone after the reaction (B); and (AB) indicates a liberated glucose concentration in the test solution containing the test sample (A) and the substrate (B), after the reaction.
The procedures in Example 1 were repeated with the exception that the test solutions contained 5% of sucrose and 0.5%, 1.0%, 3.0% or 5.0% of palatinose to examine intensity of the sucrose activity inhibition. A control solution contained 5% of sucrose in 0.1 M phosphate buffer (pH 6.8).
The procedures in Example 1 were repeated with the exception that palatinit and palatinose were used as test samples and sucrose was used as a substrate. The test samples and the substrate were dissolved in 0.1 M phosphate buffer (pH 6.8) to attain the concentration shown in Table 3 to thereby prepare two test solutions. Besides, each one of the test samples or the substrate was dissolved in 0.1 M phosphate buffer (pH 6.8) to attain the concentration shown in Table 3 to thereby prepare control solutions. Each 5 ml of the aforementioned test solutions or the control solutions was subjected to the enzymatic reaction according to the same procedures as in Example 1. The glucose concentration and the fructose concentration were measured. […]

lactase = target: T2, lactase (Rattus norvegicus, UniProt Q02401); test: Lactase activity inhibition with rat small-intestinal enzyme liquid, substrate lactose; format: biochemical; details: 5% lactose + 5% test sample
T2 construct: tissue Sigma Corporation; host or cells: rat small intestine (acetone powder), buffer extract, unpurified
T2 sequence (Q02401 868-1928): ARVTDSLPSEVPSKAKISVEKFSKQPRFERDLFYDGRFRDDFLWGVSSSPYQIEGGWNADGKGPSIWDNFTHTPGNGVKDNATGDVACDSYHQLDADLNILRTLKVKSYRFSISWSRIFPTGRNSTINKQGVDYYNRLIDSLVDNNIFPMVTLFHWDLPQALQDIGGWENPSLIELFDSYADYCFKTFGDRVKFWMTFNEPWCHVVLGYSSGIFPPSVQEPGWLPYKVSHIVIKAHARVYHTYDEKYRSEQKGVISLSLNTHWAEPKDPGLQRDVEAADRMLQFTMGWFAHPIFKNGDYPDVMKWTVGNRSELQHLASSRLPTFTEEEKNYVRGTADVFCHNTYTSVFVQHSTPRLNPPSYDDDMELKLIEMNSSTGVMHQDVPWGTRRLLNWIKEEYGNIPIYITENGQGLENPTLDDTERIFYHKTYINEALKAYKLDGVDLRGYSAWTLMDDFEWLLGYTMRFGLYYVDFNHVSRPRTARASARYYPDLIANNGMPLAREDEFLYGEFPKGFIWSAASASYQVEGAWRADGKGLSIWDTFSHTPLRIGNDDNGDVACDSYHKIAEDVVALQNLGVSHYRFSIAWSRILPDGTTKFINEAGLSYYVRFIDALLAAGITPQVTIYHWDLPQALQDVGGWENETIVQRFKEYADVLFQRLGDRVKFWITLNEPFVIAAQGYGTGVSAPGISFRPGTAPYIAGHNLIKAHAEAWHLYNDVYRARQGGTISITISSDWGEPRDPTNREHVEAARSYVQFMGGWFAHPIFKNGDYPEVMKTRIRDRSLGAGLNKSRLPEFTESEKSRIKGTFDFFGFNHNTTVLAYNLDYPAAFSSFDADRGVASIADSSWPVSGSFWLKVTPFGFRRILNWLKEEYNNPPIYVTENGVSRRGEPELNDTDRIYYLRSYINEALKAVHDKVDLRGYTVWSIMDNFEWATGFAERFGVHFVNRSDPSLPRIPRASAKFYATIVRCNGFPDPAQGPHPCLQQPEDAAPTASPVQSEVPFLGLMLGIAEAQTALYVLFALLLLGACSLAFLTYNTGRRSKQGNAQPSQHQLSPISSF
Procedure: as §2, §3, §4, §6, §7, §8, §5

glucoamylase = test: Glucoamylase activity inhibition with rat small-intestinal enzyme liquid, substrate soluble starch; format: biochemical; details: 5% soluble starch + 5% test sample
Procedure: as §2, §3, §4, §6, §7, §8
The procedures in Example 1 were repeated with the exception that palatinose and palatinit were used as a test sample and soluble starch was used as a substrate. The test samples and the substrate were dissolved in 0.1 M phosphate buffer (pH 6.8) to attain the concentration shown in Table 6 to thereby prepare two test solutions. Besides, each of the test samples or the substrate was dissolved in 0.1 M phosphate buffer (pH 6.8) to attain the concentration shown in Table 6 to thereby prepare control solutions. Each 5 ml of the aforementioned test solutions and the control solutions was subjected to the enzymatic reaction according to the same procedures as in Example 1 and the liberated glucose concentration and the decomposition inhibition ratio were measured.
The procedures in Example 1 were repeated with the exception that trehalulose was used as a test sample and soluble starch was used as a substrate. The test sample and the substrate were dissolved in 0.1 M phosphate buffer (pH 6.8) to attain the concentration shown in Table 9 to thereby prepare a test solution. Besides, the test sample or the substrate was dissolved in 0.1 M phosphate buffer (pH 6.8) to attain the concentration shown in Table 9 to thereby prepare control solutions. Each 5 ml of the aforementioned test solution and the control solutions was subjected to the enzymatic reaction according to the same procedures as in Example 1 and the liberated glucose concentration and the decomposition inhibition ratio were measured.
The procedures in Example 1 were repeated with the exception that trehalose was used as a test sample and soluble starch was used as a substrate. […]

[2] = 5% sucrose + 5% test sample, Example 3 / Test Example 2
[3] = 5% sucrose + 5% test sample, Example 5 / Test Example 4

T1 sequence (P23739 whole entry): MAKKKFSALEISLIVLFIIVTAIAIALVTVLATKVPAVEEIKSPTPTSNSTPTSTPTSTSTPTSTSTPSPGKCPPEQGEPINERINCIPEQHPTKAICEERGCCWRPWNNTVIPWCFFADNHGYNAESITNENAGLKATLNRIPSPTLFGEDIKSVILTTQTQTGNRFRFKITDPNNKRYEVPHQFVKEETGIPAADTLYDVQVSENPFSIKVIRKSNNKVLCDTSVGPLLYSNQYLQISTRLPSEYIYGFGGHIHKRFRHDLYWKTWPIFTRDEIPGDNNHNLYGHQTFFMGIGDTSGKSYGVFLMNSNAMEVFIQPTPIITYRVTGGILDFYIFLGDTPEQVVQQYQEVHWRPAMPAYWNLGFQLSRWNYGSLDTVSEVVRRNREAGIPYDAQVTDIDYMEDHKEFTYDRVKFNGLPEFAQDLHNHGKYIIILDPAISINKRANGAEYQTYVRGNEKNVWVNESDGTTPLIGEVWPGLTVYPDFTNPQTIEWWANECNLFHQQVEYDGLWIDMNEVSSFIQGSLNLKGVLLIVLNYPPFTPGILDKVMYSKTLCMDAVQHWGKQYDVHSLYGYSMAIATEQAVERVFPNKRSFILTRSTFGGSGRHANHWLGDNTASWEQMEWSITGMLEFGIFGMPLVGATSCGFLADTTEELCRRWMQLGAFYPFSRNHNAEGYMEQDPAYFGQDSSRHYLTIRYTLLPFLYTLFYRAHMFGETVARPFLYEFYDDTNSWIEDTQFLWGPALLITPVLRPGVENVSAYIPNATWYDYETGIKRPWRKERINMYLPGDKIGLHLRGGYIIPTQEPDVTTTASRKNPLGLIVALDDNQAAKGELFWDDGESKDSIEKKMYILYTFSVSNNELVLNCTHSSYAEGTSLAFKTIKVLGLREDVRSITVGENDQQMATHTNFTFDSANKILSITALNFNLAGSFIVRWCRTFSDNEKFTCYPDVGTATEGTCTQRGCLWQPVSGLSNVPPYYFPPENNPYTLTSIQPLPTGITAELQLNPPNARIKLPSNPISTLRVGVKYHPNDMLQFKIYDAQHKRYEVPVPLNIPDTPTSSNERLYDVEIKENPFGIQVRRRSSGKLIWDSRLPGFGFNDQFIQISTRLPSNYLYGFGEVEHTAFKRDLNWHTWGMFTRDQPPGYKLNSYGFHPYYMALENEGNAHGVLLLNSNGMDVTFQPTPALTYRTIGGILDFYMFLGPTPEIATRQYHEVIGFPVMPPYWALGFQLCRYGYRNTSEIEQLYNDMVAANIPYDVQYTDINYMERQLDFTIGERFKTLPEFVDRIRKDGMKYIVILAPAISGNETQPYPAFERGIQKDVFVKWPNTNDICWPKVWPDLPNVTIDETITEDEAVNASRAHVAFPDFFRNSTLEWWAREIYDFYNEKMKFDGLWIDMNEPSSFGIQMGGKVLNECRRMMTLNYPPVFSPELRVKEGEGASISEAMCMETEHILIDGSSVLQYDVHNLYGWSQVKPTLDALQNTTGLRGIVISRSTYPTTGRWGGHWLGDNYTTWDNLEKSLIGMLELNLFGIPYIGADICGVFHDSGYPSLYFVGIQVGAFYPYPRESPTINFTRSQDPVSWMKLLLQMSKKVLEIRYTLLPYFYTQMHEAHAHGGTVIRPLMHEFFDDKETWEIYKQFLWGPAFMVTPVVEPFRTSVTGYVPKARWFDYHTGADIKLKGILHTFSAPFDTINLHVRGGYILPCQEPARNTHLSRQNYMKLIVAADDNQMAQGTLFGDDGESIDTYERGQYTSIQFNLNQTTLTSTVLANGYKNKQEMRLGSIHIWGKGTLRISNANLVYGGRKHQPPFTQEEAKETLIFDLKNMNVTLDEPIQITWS

soluble starch
Liberated glucose concentration ([1]; Example 4): 4.657 g/L
Liberated glucose concentration ([1]; Example 6 / Test Example 5): 2.400 g/L

OC[C@H]1O[C@H](O[C@H]2[C@H](O)[C@@H](O)[C@H](O)O[C@@H]2CO)[C@H](O)[C@@H](O)[C@@H]1O [maltose]
Liberated glucose concentration ([1]; 37° C., 60 min, pH 6.8, Example 1 / Test Example 1): 4.956 ± 0.423 g/L

OC[C@H]1O[C@H](OC[C@H]2OC(O)[C@H](O)[C@@H](O)[C@@H]2O)[C@H](O)[C@@H](O)[C@@H]1O (stereo partly drawn) [isomaltose, reference compound]
Total concentration of liberated monosaccharides (glucose + fructose) (sucrase; 5% sucrose + 5% isomaltose): 2.88 g/L
Sucrase activity inhibitory effect (in words) (sucrase; 5% sucrose + 5% test sample): has a sucrose activity inhibitory effect
Decomposition inhibition ratio, %, against sucrase (sucrase; [2]): 31%
Liberated fructose concentration (sucrase; [2]): 0.70 g/L
Liberated glucose concentration (sucrase; [2]): 2.18 g/L
Decomposition inhibition ratio, %, against lactase (lactase): −1%
Lactase activity inhibitory effect (in words) (lactase): no lactose inhibitory effect was appreciable
Liberated fructose concentration (lactase): 0.00 g/L
Liberated galactose concentration (lactase): 0.06 g/L
Liberated glucose concentration (lactase): 2.41 g/L
Liberated fructose concentration ([1]; Example 3 / Test Examples 2, 3): 0.02 g/L
Liberated glucose concentration ([1]; Example 3 / Test Examples 2, 3): 2.14 g/L
Liberated galactose concentration [1]: 0.00 g/L

OC[C@H]1O[C@H](O[C@H]2O[C@H](CO)[C@@H](O)[C@H](O)[C@H]2O)[C@H](O)[C@@H](O)[C@@H]1O [trehalose, reference compound]
Sucrase activity inhibitory effect (in words) (sucrase; 5% sucrose + 5% test sample): substantially no sucrose activity inhibitory effect
Decomposition inhibition ratio, %, against sucrase (sucrase; [3]): 49%
Liberated glucose concentration (sucrase; [3]): 1.683 g/L
Glucoamylase activity inhibitory effect (in words) (glucoamylase): has a glucoamylase activity inhibitory effect, but the effect is very weak
Decomposition inhibition ratio, %, against glucoamylase (glucoamylase; Example 6 / Test Example 5): 14%
Liberated glucose concentration (glucoamylase; Example 6 / Test Example 5): 2.349 g/L
Liberated glucose concentration ([1]; Example 5 / Test Example 4, sucrase activity inhibition test): 1.656 g/L
Liberated glucose concentration ([1]; Example 6 / Test Example 5, glucoamylase activity inhibition test): 0.333 g/L

OC[C@H]1O[C@@H](O[C@H]2[C@H](O)[C@@H](O)C(O)O[C@@H]2CO)[C@H](O)[C@@H](O)[C@H]1O (stereo partly drawn) [lactose]
Liberated fructose concentration ([1]; Example 3 / Test Examples 2, 3): 0.00 g/L
Liberated glucose concentration ([1]; Example 3 / Test Examples 2, 3): 0.23 g/L
Liberated galactose concentration [1]: 0.16 g/L
